Data taken from patent publication US9447035B2, “Integrin antagonist conjugates for targeted delivery to cells expressing VLA-4” (Hoffmann-La Roche Inc., priority 2012, dated 2016).

Tested on: AML MV4-11 cells
Assay: siRNA uptake in AML MV4-11 cells by imaging flow cytometry
Assay type: cell-based
Protocol: AML MV4-11 cells in growth medium (RPMI 1640 with 10% FBS) were incubated with Duplex-27 (500 nM) for 1 hour at 37° C. For determining VLA-4 independent binding, 140 (10 μM) was included in one condition to block VLA-4 dependent binding. After incubation, the cells were then washed twice with D-PBS and fixed in 1% paraformaldehyde for 10 minutes. The uptake of siRNA was analyzed by imaging flow cytometry using ImageStreamx (Aminis Corporation, Seattle).

Structure (SMILES): Cc1cccc(Cl)c1C(=O)N[C@@H](Cc1ccc(NC(=O)c2c(Cl)cccc2Cl)cc1)C(=O)O [Example 140]
- Mean Cy3 intensity (140 alone at 10 μM, 1 hour at 37° C.): 663
- effect on the histograph shift of the VLA-4-targeted siRNA duplex (VLA-4 antagonist 140 present): this shift is oblated
